# In patent US7960556B2, “Thiadiazole derivatives for the treatment of neuro-degenerative diseases” (NV reMYND, priority 2006, dated 2011):
# System: α-synuclein cytotoxicity in M17-SYNwt cells
# Experiment: α-synuclein cytotoxicity assay: LDH leakage from paraquat-treated M17-SYNwt neuroblastoma cells;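 note: paraquat at 32 mM co-added with compound, 40 h exposure, LDH activity released into the culture medium measured, references are DMSO-only cells and paraquat plus DMSO cells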
# Details: Homo sapiens, Neuroblastoma cell; for Emax: read-out: % Inhib.
# Source text: An α-synuclein expression plasmid was constructed by sub-cloning the NcoI/XhoI fragment from 212T-SYN(WT) (Griffioen et al., Biochem Biophys Acta (2006) 1762(3):312-318) containing the cDNA of human wild type α-synuclein correspondingly into a standard mammalian expression vector pcDNA3.1 (Invitrogen) resulting into the plasmid pcDNA3.1-SYNwt. Plasmids pcDNA3.1 and pcDNA3.1-SYNwt were transfected to human neuroblastoma cells (ATCC No. CRL-2267) and independent clonal lines with the plasmids stably integrated into the genome were selected. […] Over-expression of α-synuclein in M17-SYNwt cell lines was confirmed by Western analysis.
# Due to the high levels of α-synuclein M17-SYNwt cells are exquisitely sensitivity to paraquat, a well-known risk factor of synuclein-dependent neuronal degeneration. In degenerated or dead cells lactate dehydrogenase (LDH) is leaked out of the cells into the extracellular environment due to a loss of plasma-membrane integrity. This principle was used to determine cytotoxicity by quantifying the level of leaked LDH into the growth medium.
# The detailed method for determining α-synuclein cytotoxicity was as follows: From appropriate precultures of M17 and M17-SYN cells were seeded at 50,000 cells/cm^2 in Optimem Reduced Serum without phenol red (available from InVitrogen, Cat. 31985-047) supplemented with 5% fetal calf serum, 1 mM sodium pyruvate, 1× non-essential amino acids, 500 μg/ml G418 0,5× antibiotic/antimycotic. After 3 hours of incubation at 37° C./5% CO2 paraquat was added to the cells (final concentration of 32 mM), together with the test compound and the cells were further incubated for 40 hours. Subsequently, LDH activity was determined using Promega Cytotox 96 Non-Radioactive cytotoxicity assay, (Cat. G1780) according the instructions of the supplier.
# In these experiments, the control group consisted of M17-SYNwt cells treated with DMSO, the untreated paraquat group consisted of M17-SYNwt cells treated with paraquat and DMSO, and the treated paraquat group consisted of M17-SYNwt cells treated with paraquat and the test compound dissolved in DMSO.
Compound,Emax [%],EC50 [nM]
"COc1cc(NC(=O)N2CCN(c3nc(Cc4ccc(F)cc4)ns3)CC2C)cc(OC)c1 (centres unmarked) [compound 29, N-(3,5-dimethoxyphenyl)-4-[3-(4-fluorobenzyl)-1,2,4-thiadiazol-5-yl]-2-methylpiperazine-1-carboxamide]",51,
"CCCCc1ccc(C(=O)N2CCN(c3nc(Cc4ccc(F)cc4)ns3)CC2C)cc1 (centres unmarked) [compound 120, 1-(4-butylbenzoyl)-4-[3-(4-fluorobenzyl)-1,2,4-thiadiazol-5-yl]-2-methylpiperazine]",120,98.7
"CC1CN(c2nc(Cc3ccc(Cl)cc3)ns2)CCN1C(=O)/C=C/c1ccccc1 (centres unmarked) [compound 86, 1-[(2E)-3-phenylprop-2-enoyl]-4-[3-(4-chlorobenzyl)-1,2,4-thiadiazol-5-yl]2-methylpiperazine]",81,1130
"CCOc1ccc(NC(=O)N2CCN(c3nc(Cc4ccc(F)cc4)ns3)CC2C)cc1 (centres unmarked) [compound 14, N-(4-ethoxyphenyl)-4-[3-(4-fluorobenzyl)-1,2,4-thiadiazol-5-yl]-2-methylpiperazine-1-carboxamide]",70,1730
"CCCCc1ccc(C(=O)N2CCN(c3nc(Cc4ccc(C)cc4)ns3)CC2)cc1 [compound 182, 1-(4-butylbenzoyl)-4-[3-(4-methylbenzyl)-1,2,4-thiadiazol-5-yl]piperazine]",57,
"CC1CN(c2nc(Cc3ccc(F)cc3)ns2)CCN1C(=O)c1ccc(-c2ccccc2)cc1 (centres unmarked) [compound 129, 1-(1,1′-biphenyl-4-ylcarbonyl)-4-[3-(4-fluorobenzyl)-1,2,4-thiadiazol-5-yl]-2-methylpiperazine]",61,240
"CC1CN(c2nc(Cc3ccc(F)cc3)ns2)CCN1C(=O)c1ccc([N+](=O)[O-])cc1 (centres unmarked) [compound 184, 1-(4-nitrobenzoyl)-4-[3-(4-fluorobenzyl)-1,2,4-thiadiazol-5-yl]-2-methylpiperazine]",52,
"O=C(Nc1ccccc1C(F)(F)F)N1CCN(c2nc(Cc3ccc(F)cc3)ns2)CC1 [compound 17, N-(2-trifluoromethylphenyl)-4-[3-(4-fluorobenzyl)-1,2,4-thiadiazol-5-yl]piperazine-1-carboxamide]",46,
"CC1CN(c2nc(Cc3ccc(F)cc3)ns2)CCN1S(=O)(=O)c1ccc([N+](=O)[O-])cc1 (centres unmarked) [compound 73, 1-[4-nitrophenylsulfonyl]-4-[3-(4-fluorobenzyl)-1,2,4-thiadiazol-5-yl]-2-methylpiperazine]",33,
"COc1cccc(Cc2nsc(N3CCN(C(=O)c4ccc(C(C)(C)C)cc4)C(C)C3)n2)c1 (centres unmarked) [compound 146, 1-(4-tert-butylbenzoyl)-4-[3-(3-methoxybenzyl)-1,2,4-thiadiazol-5-yl]-2-methylpiperazine]",94,720
"O=C(NCCN1CCN(c2nc(Cc3ccc(F)cc3)ns2)CC1)c1ccc(F)cc1 [compound 102, 4-fluoro-N-{2-[4-[3-(4-fluorobenzyl)-1,2,4-thiadiazol-5-yl]piperazin-1-yl]ethyl}benzamide]",80,1990
"Cc1ccccc1C(=O)NCCN1CCN(c2nc(Cc3ccc(F)cc3)ns2)CC1 [compound 99, 2-methyl-N-{2-[4-[3-(4-fluorobenzyl)-1,2,4-thiadiazol-5-yl]piperazin-1-yl]ethyl}benzamide]",97,1580
"CC1CN(c2nc(Cc3ccc(F)cc3)ns2)CCN1S(=O)(=O)c1ccc(F)cc1 (centres unmarked) [compound 59, 1-[4-fluorophenylsulfonyl]-4-[3-(4-fluorobenzyl)-1,2,4-thiadiazol-5-yl]-2-methylpiperazine]",42,
"CC(C)(C)c1ccc(S(=O)(=O)N2CCN(c3nc(Cc4ccc(F)cc4)ns3)CC2)cc1 [compound 30, 1-[4-tert-butylphenylsulfonyl]-4-[3-(4-fluorobenzyl)-1,2,4-thiadiazol-5-yl]piperazine]",51,
"COc1ccc(S(=O)(=O)N(C)CCNc2nc(Cc3cccc(OC)c3)ns2)cc1 [compound 214, N′-[4-methoxyphenylsulfonyl]-N-[3-(3-methoxybenzyl)-1,2,4-thiadiazol-5-yl]-N′-methylethane-1,2-diamine]",95,498
"COc1cccc(Cc2nsc(N3CCN(C(=O)c4ccccc4)C(C)C3)n2)c1 (centres unmarked) [compound 173, 1-benzoyl-4-[3-(3-methoxybenzyl)-1,2,4-thiadiazol-5-yl]-2-methylpiperazine]",85,
"CCc1ccccc1NC(=O)N1CCN(c2nc(Cc3ccc(F)cc3)ns2)CC1C (centres unmarked) [compound 12, N-(2-ethylphenyl)-4-[3-(4-fluorobenzyl)-1,2,4-thiadiazol-5-yl]-2-methylpiperazine-1-carboxamide]",92,890
"Cc1ccc(Cc2nsc(N3CCN(S(=O)(=O)C(C)C)CC3)n2)cc1 [compound 85, 1-(isopropylsulfonyl)-4-[3-(4-methylbenzyl)-1,2,4-thiadiazol-5-yl]piperazine]",69,3650
"CC1CN(c2nc(Cc3ccc(F)cc3)ns2)CCN1C(=O)c1ccc2c(c1)OCO2 (centres unmarked) [compound 178, 1-(1,3-benzodioxol-5-ylcarbonyl)-4-[3-(4-fluorobenzyl)-1,2,4-thiadiazol-5-yl]-2-methylpiperazine]",68,

Compound,Emax [%],EC50 [nM]
"Cc1ccc(C(=O)N2CCN(c3nc(Cc4ccc(F)cc4)ns3)CC2)cc1 [compound 141, 1-(4-methylbenzoyl)-4-[3-(4-fluorobenzyl)-1,2,4-thiadiazol-5-yl]piperazine]",75,490
"Cc1ccc(C(=O)N2CCN(c3nc(Cc4ccc(F)cc4)ns3)CC2C)cc1 (centres unmarked) [compound 139, 1-(4-methylbenzoyl)-4-[3-(4-fluorobenzyl)-1,2,4-thiadiazol-5-yl]-2-methylpiperazine]",87,400
"CCOc1ccc(S(=O)(=O)N2CCN(c3nc(Cc4ccc(F)cc4)ns3)CC2)cc1 [compound 196, 1-[4-ethoxyphenylsulfonyl]-4-[3-(4-fluoro-benzyl)-1,2,4-thiadiazol-5-yl]piperazine]",42,17.6
"Fc1ccc(Cc2nsc(N3CCN(C/C=C/c4ccccc4)CC3)n2)cc1 [compound 93, 1-[3-phenylprop-2-enyl]-4-[3-(4-fluorobenzyl)-1,2,4-thiadiazol-5-yl]piperazine]",91,1990
"Cc1ccc(Cc2nsc(N3CCN(C(=O)c4ccccc4)C(C)C3)n2)cc1 (centres unmarked) [compound 169, 1-benzoyl-4-[3-(4-methylbenzyl)-1,2,4-thiadiazol-5-yl]-2-methylpiperazine]",91,
"Cc1cccc(C)c1NC(=O)N1CCN(c2nc(Cc3ccc(F)cc3)ns2)CC1 [compound 24, N-(2,6-dimethylphenyl)-4-[3-(4-fluorobenzyl)-1,2,4-thiadiazol-5-yl]piperazine-1-carboxamide]",124,1200
"CC1CN(c2nc(Cc3ccc(F)cc3)ns2)CCN1S(=O)(=O)c1ccccc1 (centres unmarked) [compound 47, 1-phenylsulfonyl-4-[3-(4-fluorobenzyl)-1,2,4-thiadiazol-5-yl]-2-methylpiperazine]",129,
"CCCCS(=O)(=O)N1CCN(c2nc(Cc3ccc(C)cc3)ns2)CC1 [compound 83, 1-(butylsulfonyl)-4-[3-(4-methylbenzyl)-1,2,4-thiadiazol-5-yl]piperazine]",36,2640
"COc1ccc(S(=O)(=O)N2CCN(c3nc(Cc4ccccc4)ns3)CC2)cc1 [compound 199, 1-[4-methoxyphenylsulfonyl]-4-[3-benzyl-1,2,4-thiadiazol-5-yl]piperazine]",38,3.8
"COc1ccc(S(=O)(=O)N2CCN(c3nc(Cc4ccc(Cl)cc4)ns3)CC2C)cc1 (centres unmarked) [compound 51, 1-[4-methoxyphenylsulfonyl]-4-[3-(4-chlorobenzyl)-1,2,4-thiadiazol-5-yl]-2-methylpiperazine]",94,1.35
"CC1CN(c2nc(Cc3ccc(F)cc3)ns2)CCN1C(=O)c1cccc(F)c1 (centres unmarked) [compound 179, 1-(3-fluorobenzoyl)-4-[3-(4-fluorobenzyl)-1,2,4-thiadiazol-5-yl]-2-methylpiperazine]",68,
"COc1ccc(S(=O)(=O)N2CCN(c3nc(Cc4cccc(F)c4)ns3)CC2)cc1 [compound 193, 1-[4-methoxyphenylsulfonyl]-4-[3-(3-fluoro-benzyl)-1,2,4-thiadiazol-5-yl]piperazine]",68,10.7
"COc1cccc(Cc2nsc(N3CCN(C(=O)c4ccc(F)cc4)C(C)C3)n2)c1 (centres unmarked) [compound 123, 1-(4-fluorobenzoyl)-4-[3-(3-methoxybenzyl)-1,2,4-thiadiazol-5-yl]-2-methylpiperazine]",95,140
"COc1ccc(S(=O)(=O)NCCNc2nc(Cc3cccc(OC)c3)ns2)cc1 [compound 209, 1-N-[4-methoxyphenylsulfonyl]-N′-[3-(3-methoxybenzyl)-1,2,4-thiadiazol-5-yl]-ethane-1,2-diamine]",100,317
"Cc1ccc(Cc2nsc(N3CCN(S(=O)(=O)c4ccc(Cl)cc4)C(C)C3)n2)cc1 (centres unmarked) [compound 34, 1-[4-chlorophenylsulfonyl]-4-[3-(4-methylbenzyl)-1,2,4-thiadiazol-5-yl]-2-methylpiperazine]",66,65.7
"O=C(c1ccccc1F)N1CCN(c2nc(Cc3ccc(Cl)cc3)ns2)CC1 [compound 159, 1-(2-fluorobenzoyl)-4-[3-(4-chlorobenzyl)-1,2,4-thiadiazol-5-yl]piperazine]",48,2850
"COc1cccc(Cc2nsc(N3CCN(C(=O)c4ccccc4F)C(C)C3)n2)c1 (centres unmarked) [compound 115, 1-(2-fluorobenzoyl)-4-[3-(3-methoxybenzyl)-1,2,4-thiadiazol-5-yl]-2-methylpiperazine]",75,36.1
"COc1ccc(S(=O)(=O)N2CCN(c3nc(Cc4ccc(C)cc4)ns3)CC2)cc1 [compound 68, 1-[4-methoxyphenylsulfonyl]-4-[3-(4-methylbenzyl)-1,2,4-thiadiazol-5-yl]piperazine]",53,0.255
